Reference: ChEMBL document CHEMBL1833897, “Lead generation of heat shock protein 90 inhibitors by a combination of fragment-based approach, virtual screening, and structure-based drug design” (Bioorg Med Chem Lett, 2011)

Legend:
[1] = target: T1, Heat shock protein HSP 90-alpha (Homo sapiens, UniProt P07900)
Description: Binding affinity to human HSP90alpha assessed as 2D1H-15N chemical shift perturbation by NMR spectroscopy

[2] = target: T1, Heat shock protein HSP 90-alpha; remark: listed apart in the source
Description: Inhibition of human N-terminal GST-tagged HSP90alpha expressed in Escherichia coli after 1 hr using 10 mM of ATP and malachite green by microplate reader

[3] = target: T1, Heat shock protein HSP 90-alpha; remark: listed apart in the source
Description: Binding affinity to biotinylated N-terminal human HSP90alpha using of streptavidin coated surface by SPR binding assay

| Structure (SMILES) | Kd [1] | IC50 [2] | Kd [3] |
| --- | --- | --- | --- |
| CSc1nc(N)nc(-c2ccncc2)n1 | > 1 µM | – | – |
| Nc1cnccn1 | 79 µM | – | – |
| CSc1nc(N)nc(SCc2ccc(Cl)cc2)n1 | 3.7 µM | 24 µM | – |
| CSc1nc(N)nc(SCc2ccccc2)n1 | – | 16 µM | – |
| CSc1nc(N)nc(-c2ccccc2C)n1 | 4.5 µM | 0.57 µM | – |
| Nc1ncc2c(n1)-c1ccoc1CC2 | 0.33 µM | – | – |
| CCCc1nc(N)ncc1C(=O)OCC | 0.34 µM | – | – |
| Nc1nccc(-c2nccs2)n1 | 0.57 µM | – | – |
| CC(=O)c1cnc(N)nc1C | > 1 µM | – | – |
| Nc1ccncn1 | 300 µM | – | – |
| CSc1nc(N)nc(SCCN2CCOCC2)n1 | 2.3 µM | 33 µM | – |
| Oc1ccc2c(c1)CCc1c[nH]nc1-2 | – | – | 0.75 µM |
| CSc1nc(N)nc(-c2ccccc2)n1 | 51 µM | 31 µM | – |
| Nc1ncncn1 | 10 µM | – | – |
